Here are results for 31 compounds from patent US5753673A, “Quinolinecarboxylic acid derivatives” (Taisho Pharmaceutical Co., Ltd., priority 1994, dated 1998).

Structures can show the parent of a compound that is named as a salt. Where two headings read alike, the source gives them in different places.

The target of the assay is T1, serotonin 4 receptor (5-HT4) (Cavia porcellus, UniProt O70528).
T1 construct: from tissue; host or cells: longitudinal muscle strips of guinea pig ileum (Harley guinea pigs)
Nature of the assay: Stimulating activity on serotonin 4 receptor (twitch response in guinea pig ileum). In kind it is cell-based. The method, then: Stimulating activity on serotonin 4 receptor
From Harley guinea pigs weighing 250 to 400 g, a section of ileum 10 to 20 cm proximal to the ileocecal junction was removed. Longitudinal muscle strips obtained from the ileum were used for this assay. The preparations were suspended in Krebs' solution at 32 to 34° C., bubbled continuously with 95% O2 and 5% CO2, and subjected to initial tension of about 0.8 g. Responses were recorded isometrically. Twitch responses were evoked by electrical stimulation (0.2 Hz, 1 msec pulse duration). The preparations were stimulated at supramaximal voltage for 2 to 3 hours, and were then allowed to equilibrate for about 1 hour at submaximal voltage. […] The preparations were left for at least 45 minutes before cumulative addition of each agonist.
The quinolinecarboxylic acid derivatives of the present invention were employed as sample compounds. For comparison, the following compounds were employed. These compounds were diluted by dissolving them in distilled water or in DMSO.
The data obtained was analyzed by RS1 (BBN Software Product Co.).

Setting [1] is: twitch response in guinea pig ileum, maximum contraction of sample compound = 100%, read-out: ED50 (concentration enhancing the twitch response by 50%).

T1 sequence (O70528 whole entry): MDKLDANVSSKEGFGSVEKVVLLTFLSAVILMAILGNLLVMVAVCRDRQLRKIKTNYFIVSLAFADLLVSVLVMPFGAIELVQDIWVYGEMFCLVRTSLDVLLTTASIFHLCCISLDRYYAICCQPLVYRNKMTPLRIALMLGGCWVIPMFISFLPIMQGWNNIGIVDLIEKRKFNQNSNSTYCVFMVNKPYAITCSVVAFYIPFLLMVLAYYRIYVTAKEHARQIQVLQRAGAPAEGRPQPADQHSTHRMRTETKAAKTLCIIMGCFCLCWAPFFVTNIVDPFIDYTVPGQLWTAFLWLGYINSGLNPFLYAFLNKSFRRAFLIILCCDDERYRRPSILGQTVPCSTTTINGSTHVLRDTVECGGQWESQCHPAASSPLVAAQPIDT

As for `CN1[C@@H]2CC[C@H]1C[C@@H](NC(=O)c1cc3ccccc3[nH]c1=O)C2` [Comparative Compound 2, reference compound], the EC50 under setting [1] was more than 3000 nM.
As to `CN1[C@@H]2CC[C@H]1C[C@@H](OC(=O)c1cc3ccccc3[nH]c1=O)C2` [Comparative Compound 3, reference compound], under setting [1], the EC50 is more than 3000 nM.
The same measure, in the same setting: the value for `CCCCn1c(=O)c(C(=O)N[C@H]2C[C@H]3CC[C@@H](C2)N3C)c(O)c2ccccc21` [Comparative Compound 4, reference compound] was more than 3000 nM.
As for `C=CCN1C2CCC1CC(NC(=O)c1cc3ccccc3n(C(C)C)c1=O)C2` (stereo not drawn) [Compound 1, endo-N-(8-(2-propenyl)-8-azabicyclo[3.2.1]oct-3-yl)-1-isopropyl-2-oxo-1,2-dihydro-3-quinolinecarboxamide], the EC50 was 59.2 nM.
The same measure, in the same setting: the figure for `CC(C)n1c(=O)c(C(=O)NC2CC3CCC(C2)N3CCO)cc2ccccc21` (stereo not drawn) [Compound 4, Endo-N-(8-(2-hydroxyethyl)-8-azabicyclo[3.2.1]oct-3-yl)-1-isopropyl-2-oxo-1,2-dihydro-3-quinolinecarboxamide] is 45.9 nM; for `CC(C)n1c(=O)c(C(=O)NC2CC3CCC(C2)N3CCCCO)cc2ccccc21` (stereo not drawn) [Compound 6, Endo-N-(8-(4-hydroxybutyl)-8-azabicyclo[3.2.1]oct-3-yl)-1-isopropyl-2-oxo-1,2-dihydro-3-quinolinecarboxamide] it is 38.5 nM.
`CC(C)n1c(=O)c(C(=O)NC2CC3CCC(C2)N3CCCCCO)cc2ccccc21` (stereo not drawn) [Compound 7, Endo-N-(8-(5-hydroxypentyl)-8-azabicyclo[3.2.1]oct-3-yl)-1-isopropyl-2-oxo-1,2-dihydro-3-quinolinecarboxamide] yielded an EC50 of 30.8 nM.
Regarding `CC(C)n1c(=O)c(C(=O)NC2CC3CCC(C2)N3CCCCCCO)cc2ccccc21` (stereo not drawn) [Compound 8, Endo-N-(8-(6-hydroxyhexyl)-8-azabicyclo[3.2.1]oct-3-yl)-1-isopropyl-2-oxo-1,2-dihydro-3-quinolinecarboxamide hydrochloride], the EC50 amounted to 62.3 nM.
`CC(=O)OCCCCCN1C2CCC1CC(NC(=O)c1cc3ccccc3n(C(C)C)c1=O)C2` (stereo not drawn) [Compound 9, Endo-N-(8-(5-acetoxypentyl)-8-azabicyclo[3.2.1]oct-3-yl)-1-isopropyl-2-oxo-1,2-dihydro-3-quinolinecarboxamide hydrochloride] had an EC50 of 33 nM.
The compound `CSCCN1C2CCC1CC(NC(=O)c1cc3ccccc3n(C(C)C)c1=O)C2` (stereo not drawn) [Compound 17, Endo-N-(8-(2-(methylthio)ethyl)-8-azabicyclo[3.2.1]oct-3-yl)-1-isopropyl-2-oxo-1,2-dihydro-3-quinolinecarboxamide] had an EC50 of 48 nM.
`CC(C)n1c(=O)c(C(=O)NC2CC3CCC(C2)N3CCS(=O)(=O)c2ccccc2)cc2ccccc21` (stereo not drawn) [Compound 19, Endo-N-(8-(2-(phenylsulfonyl)ethyl)-8-azabicyclo[3.2.1]oct-3-yl)-1-isopropyl-2-oxo-1,2-dihydro-3-quinolinecarboxamide] returned an EC50 of 86.6 nM.
The same measure, in the same setting: the figure for `CC(C)n1c(=O)c(C(=O)NC2CC3CCC(C2)N3CC2CCCCO2)cc2ccccc21` (stereo not drawn) [Compound 22, Endo-N-(8-(tetrahydropyran-2-methyl)-8-azabicyclo[3.2.1]oct-3-yl)-1-isopropyl-2-oxo-1,2-dihydro-3-quinolinecarboxamide] is 24 nM; for `CC(C)n1c(=O)c(C(=O)NC2CC3CCC(C2)N3CC(=O)O)cc2ccccc21` (stereo not drawn) [Compound 26, Endo-N-(8-(carboxymethyl)-8-azabicyclo[3.2.1]oct-3-yl)-1-isopropyl-2-oxo-1,2-dihydro-3-quinolinecarboxamide] it is 66.1 nM.
Same read-out and setting: the figure for `CCOC(=O)CCCN1C2CCC1CC(NC(=O)c1cc3ccccc3n(C(C)C)c1=O)C2` (stereo not drawn) [Compound 27, Endo-N-(8-(3-(ethoxycarbonyl)propyl)-8-azabicyclo[3.2.1]oct-3-yl)-1-isopropyl-2-oxo-1,2-dihydro-3-quinolinecarboxamide hydrochloride] is 19.3 nM; for `CC(C)n1c(=O)c(C(=O)NC2CC3CCC(C2)N3CCCC(=O)O)cc2ccccc21` (stereo not drawn) [Compound 28, Endo-N-(8-(3-carboxypropyl)-8-azabicyclo[3.2.1]oct-3-yl)-1-isopropyl-2-oxo-1,2-dihydro-3-quinolinecarboxamide] it is 91.4 nM; for `CC(=O)CN1C2CCC1CC(NC(=O)c1cc3ccccc3n(C(C)C)c1=O)C2` (stereo not drawn) [Compound 30, Endo-N-(8-(2-oxopropyl)-8-azabicyclo[3.2.1]oct-3-yl)-1-isopropyl-2-oxo-1,2-dihydro-3-quinolinecarboxamide hydrochloride] it is 11.5 nM.
`CC(=O)CCCN1C2CCC1CC(NC(=O)c1cc3ccccc3n(C(C)C)c1=O)C2` (stereo not drawn) [Compound 31, Endo-N-(8-(4-oxopentyl)-8-azabicyclo[3.2.1]oct-3-yl)-1-isopropyl-2-oxo-1,2-dihydro-3-quinolinecarboxamide] came in with an EC50 of 52.3 nM.
For the compound `CC(C)n1c(=O)c(C(=O)NC2CC3CCC(C2)N3CCC#N)cc2ccccc21` (stereo not drawn) [Compound 33, Endo-N-(8-(2-cyanoethyl)-8-azabicyclo[3.2.1]oct-3-yl)-1-isopropyl-2-oxo-1,2-dihydro-3-quinolinecarboxamide], the EC50 was found to be 35.8 nM.
`CC(C)n1c(=O)c(C(=O)NC2CC3CCC(C2)N3CC(N)=O)cc2ccccc21` (stereo not drawn) [Compound 34, Endo-N-(8-carbamoylmethyl-8-azabicyclo[3.2.1]oct-3-yl)-1-isopropyl-2-oxo-1,2-dihydro-3-quinolinecarboxamide] registered an EC50 of 61.9 nM.
`C=CCN1C2CCC1CC(OC(=O)c1cc3ccccc3n(C(C)C)c1=O)C2` (stereo not drawn) [Compound 35, endo-8-(2-propenyl)-8-azabicyclo[3.2.1]oct-3-yl 1-isopropyl-2-oxo-1,2-dihydro-3-quinolinecarboxylate hydrochloride] registered an EC50 of 54.4 nM.
As for `CC(C)n1c(=O)c(C(=O)OC2CC3CCC(C2)N3CCO)cc2ccccc21` (stereo not drawn) [Compound 37, Endo-8-(2-hydroxyethyl)-8-azabicyclo[3.2.1]oct-3-yl 1-isopropyl-2-oxo-1,2-dihydro-3-quinolinecarboxylate hydrochloride], the EC50 turned out to be 16.1 nM.
Turning to `CC(C)n1c(=O)c(C(=O)OC2CC3CCC(C2)N3CCCO)cc2ccccc21` (stereo not drawn) [Compound 38, Endo-8-(3-hydroxypropyl)-8-azabicyclo[3.2.1]oct-3-yl 1-isopropyl-2-oxo-1,2-dihydro-3-quinolinecarboxylate], the EC50 was 11.9 nM.
`CC(C)n1c(=O)c(C(=O)OC2CC3CCC(C2)N3CCCCO)cc2ccccc21` (stereo not drawn) [Compound 39, Endo-8-(4-hydroxybutyl)-8-azabicyclo[3.2.1]oct-3-yl 1-isopropyl-2-oxo-1,2-dihydro-3-quinolinecarboxylate hydrochloride]: the EC50 turned out to be 16.6 nM.
Same read-out and setting: the value for `CC(C)n1c(=O)c(C(=O)OC2CC3CCC(C2)N3CCCCCO)cc2ccccc21` (stereo not drawn) [Compound 40, Endo-8-(5-hydroxypentyl)-8-azabicyclo[3.2.1]oct-3-yl 1-isopropyl-2-oxo-1,2-dihydro-3-quinolinecarboxylate hydrochloride] was 25.5 nM; that for `CC(C)n1c(=O)c(C(=O)O[C@H]2C[C@H]3CC[C@@H](C2)N3CCCCCCO)cc2ccccc21` [Compound 41, Endo-8-(6-hydroxyhexyl)-8-azabicyclo[3.2.1]oct-3-yl 1-isopropyl-2-oxo-1,2-dihydro-3-quinolinecarboxylate hydrochloride] was 50.9 nM; that for `COCCN1[C@@H]2CC[C@H]1C[C@@H](OC(=O)c1cc3ccccc3n(C(C)C)c1=O)C2` [Compound 42, Endo-8-(2-methoxyethyl)-8-azabicyclo[3.2.1]oct-3-yl 1-isopropyl-2-oxo-1,2-dihydro-3-quinolinecarboxylate hydrochloride] was 18.4 nM.
Still for that read-out and setting: the figure for `CCOCCN1[C@@H]2CC[C@H]1C[C@@H](OC(=O)c1cc3ccccc3n(C(C)C)c1=O)C2` [Compound 43, Endo-8-(2-ethoxyethyl)-8-azabicyclo[3.2.1]oct-3-yl 1-isopropyl-2-oxo-1,2-dihydro-3-quinolinecarboxylate hydrochloride] is 15.2 nM; for `CCN(CC)CCN1[C@@H]2CC[C@H]1C[C@@H](OC(=O)c1cc3ccccc3n(C(C)C)c1=O)C2` [Compound 44, Endo-8-(2-diethylaminoethyl)-8-azabicyclo[3.2.1]oct-3-yl 1-isopropyl-2-oxo-1,2-dihydro-3-quinolinecarboxylate dihydrochloride] it is 72.6 nM.
Same read-out and setting: the figure for `CSCCN1[C@@H]2CC[C@H]1C[C@@H](OC(=O)c1cc3ccccc3n(C(C)C)c1=O)C2` [Compound 45, Endo-8-(2-(methylthio)ethyl)-8-azabicyclo[3.2.1]oct-3-yl 1-isopropyl-2-oxo-1,2-dihydro-3-quinolinecarboxylate] is 29.5 nM.
`CC(C)n1c(=O)c(C(=O)O[C@H]2C[C@H]3CC[C@@H](C2)N3CCS(=O)(=O)c2ccccc2)cc2ccccc21` [Compound 46, Endo-8-(2-(phenylsulfonyl)ethyl)-8-azabicyclo[3.2.1]oct-3-yl 1-isopropyl-2-oxo-1,2-dihydro-3-quinolinecarboxylate] yielded an EC50 of 46.5 nM.
For the compound `CC(C)n1c(=O)c(C(=O)O[C@H]2C[C@H]3CC[C@@H](C2)N3CCN2CCOCC2)cc2ccccc21` [Compound 47, Endo-8-(2-morpholinoethyl)-8-azabicyclo[3.2.1]oct-3-yl 1-isopropyl-2-oxo-1,2-dihydro-3-quinoline-carboxylate dihydrochloride], the EC50 is 30.8 nM.
